Reference: patent US20090016956A1, “Labeled Macrophages and Methods of Use Thereof” (priority 2007, published 2009)

System: reverse cholesterol transport pathway (RCTP)
Assay: modulation of the reverse cholesterol transport pathway (RCTP); modified in vivo assay (MIVA), release of labeled cholesterol from loaded cells
Conditions: general statement in the description; the data are only in FIGS. 1-8, values not given
Experimental: In another embodiment, the invention includes a method of loading of cells, (e.g., macrophages in culture) with labeled cholesterol, e.g., radiolabeled cholesterol, by exposing the cells to autologous red cell membrane fragments which have been equilibrated with labeled cholesterol. The exposed cells phagocytose the red cell membrane fragments and internalize and store the labeled cholesterol becoming, in effect, foam cells. These ‘loaded’ cells are then administered, e.g., intraveneously injected, into a subject and allowed to distribute throughout the subject and settle within its organs (e.g., heart, lung, kidney, liver). A base level of cholesterol release is observed. After an appropriate length of time, the subject is treated with the test agent, or compound of interest and the release of label (e.g., labeled cholesterol) is measured and/or monitored as a function of time, dose, or dosing regimen. The appropriate length of time may be approximately twenty four hours, although it may also be longer or shorter, if so desired.
Stimulation of cholesterol release from the introduced loaded cells results in a transient increase in the amount of circulating label over baseline. Measurement of the kinetics of label release is carried out by direct analysis of samples of circulating whole blood, plasma, serum, feces, urine, saliva and/or cerebral spinal fluid. […]

CCCCCCCCCC[Si](C)(C)CCC(=O)NC(Cc1ccc(C)cc1)c1ccccc1 (stereo not shown) [Sandoz 58-035]
effectiveness in modulation of the RCTP: effective in modulation of the RCTP
